The target in assay [1] is T1, IL-23-stimulated phosphorylated STAT3 in peripheral blood mononuclear cells (PBMCs) (Homo sapiens, UniProt Q5VWK5).
T1 sequence (Q5VWK5 24-629): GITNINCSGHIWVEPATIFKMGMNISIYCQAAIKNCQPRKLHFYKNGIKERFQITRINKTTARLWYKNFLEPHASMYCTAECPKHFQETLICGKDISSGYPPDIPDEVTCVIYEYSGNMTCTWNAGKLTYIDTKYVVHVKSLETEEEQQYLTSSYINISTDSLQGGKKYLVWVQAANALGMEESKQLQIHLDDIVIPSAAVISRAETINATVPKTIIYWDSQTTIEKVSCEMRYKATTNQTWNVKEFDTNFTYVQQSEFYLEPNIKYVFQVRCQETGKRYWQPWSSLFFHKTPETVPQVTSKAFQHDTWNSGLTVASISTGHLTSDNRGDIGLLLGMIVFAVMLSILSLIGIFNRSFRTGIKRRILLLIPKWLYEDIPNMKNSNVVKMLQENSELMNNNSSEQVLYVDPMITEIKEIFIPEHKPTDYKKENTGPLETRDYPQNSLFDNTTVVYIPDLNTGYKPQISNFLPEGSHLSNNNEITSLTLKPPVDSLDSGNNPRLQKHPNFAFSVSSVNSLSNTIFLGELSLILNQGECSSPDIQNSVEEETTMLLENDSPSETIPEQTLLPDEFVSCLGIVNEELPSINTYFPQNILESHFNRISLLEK
The experiment in a line: PBMC pSTAT3 Assay. Format: cell-based. As to conditions: PBMCs from healthy donors, IL-23 5 ng/mL, 30 minutes, read-out: PBMC pSTAT3 IC50. On the procedure: Cryopreserved peripheral blood mononuclear cells (PBMCs) from healthy donors were thawed and washed twice in ImmunoCult-XF T cell expansion medium (XF-TCEM) supplemented with CTL anti-aggregate wash. The cells were counted, resuspended at 2-6×10^5 cells per mL XF-TCEM supplemented with penicillin/streptomycin and 100 ng/mL IL-1β (BioLegend, 579404), and cultured in tissue culture flasks coated with anti-CD3 (eBioscience, 16-0037-85 or BD Pharmingen, 555329) at 37° C. in 5% CO2. On day 4 of culture, PBMCs were collected, washed twice in RPMI-1640 supplemented with 0.1% BSA (RPMI-BSA), and incubated in RPMI-BSA in upright tissue culture flasks for ˜4 hours at 37° C. in 5% CO2. Following this ‘starvation,’ a total of 6×10^4 cells in 30 μL RPMI-BSA was transferred into each well of a 384-well plate pre-spotted with peptide or DMSO. The cells were incubated for 30 minutes prior to the addition of IL-23 at a final concentration of 5 ng/mL. The cells were stimulated with cytokine for 30 minutes at 37° C. in 5% CO2, transferred onto ice for 10 minutes, and lysed. Cell lysates were stored at −80° C. until phosphorylated STAT3 was measured using the phospho-STAT panel kit (Meso Scale Discovery, K15202D).

For the next assay, the target named is T2, IL-23R (Homo sapiens, UniProt Q5VWK5).
T2 construct: host or cells: HEK293
T2 sequence (Q5VWK5 24-629): T1 sequence (Q5VWK5 24-629)
In words: IL23R Reporter Assay. As to conditions: HEK293 cells containing IL-23R, IL-12Rβ1 and STAT-inducible luciferase reporter; 10 ng/mL IL-23; 5 h; read-out: IC50. The format is cell-based. On the procedure: Compounds were serially diluted in 100% (v/v) DMSO) and plated using an Echo acoustic dispenser (Labcyte) into 1536-well non-treated black assay plates (Corning #9146). […] After 5 h at 37° C., 5% CO2, 95% relative humidity, cells were placed at 20° C. and treated with BioGlo reagent (Promega) according to the Manufacturer's instructions. Luminescence was measured on a Pherastar FSX (BMG LabTech).

Positions of bridges follow the written chain, without caps; N, C: chain ends. Non-standard residues stand in square brackets, D forms with d. Residues, ends and D or L forms follow the SMILES beside them. *: point of attachment. Trp(7-(3-AcNH-Ph)) = CC(=O)Nc1cccc(-c2cccc3c(C[C@H](N)C(=O)O)c[nH]c23)c1; NH(CH2CH2O)2CH2CH2NMe3+ = C[N+](C)(C)CCOCCOCCN*; 2Nal(6-OH) = N[C@@H](Cc1ccc2cc(O)ccc2c1)C(=O)O; Trp(7-Me) = Cc1cccc2c(C[C@H](N)C(=O)O)c[nH]c12; dLys(Me3) = C[N+](C)(C)CCCC[C@@H](N)C(=O)O; 3Pal(5-Me) = Cc1cncc(C[C@H](N)C(=O)O)c1; X9 = CN(CC*)C(=O)CCOCCOCC[N+](C)(C)C; AEF = NCCOc1ccc(C[C@H](N)C(=O)O)cc1; 3Pal = N[C@@H](Cc1cccnc1)C(=O)O; Ethyl(2-guanidino) = N=C(N)NCC*; Lys(Me) = CNCCCC[C@H](N)C(=O)O; Pen = CC(C)(S)[C@H](N)C(=O)O; Thp = NC1(C(=O)O)CCOCC1; X18 = C[N+](C)(C)CCCCC*; Sar = CNCC(=O)O

On to `CC(=O)NCCCC[C@@H]1NC(=O)[C@H](Cc2c[nH]c3c(C)cccc23)NC(=O)[C@H]([C@@H](C)O)NC(=O)[C@H](CC(N)=O)NC(=O)[C@@H](NC(=O)[C@@H](CCCNC(=N)N)NC(C)=O)C(C)(C)SSC(C)(C)[C@@H](C(=O)N[C@@H](Cc2ccc(OCCCCC[N+](C)(C)C)cc2)C(=O)N[C@@H](Cc2ccc3cc(O)ccc3c2)C(=O)NC2(C(=O)N[C@@H](CCC(=O)O)C(=O)N[C@@H](CC(N)=O)C(=O)N[C@@H](Cc3cccnc3)C(=O)N(C)CC(N)=O)CCOCC2)NC1=O` [compound 59, MeCO-r-Pen(3)-N-T-7MeW-K(Ac)-Pen(3)-TMAPF-6OH2Nal-THP-E-N-3Pya-Sar-CONH2] (Ac-[dR][Pen]NT[Trp(7-Me)]K(Ac)[Pen]Y(X18)[2Nal(6-OH)][Thp]EN[3Pal][Sar]-NH2; disulfide 2-7), for which the IC50 was 0.01 to 0.1 nM in assay [1] and under 10 nM on IL-23R.

Consider `CC(=O)NCCCC[C@@H]1NC(=O)[C@H](Cc2c[nH]c3c(-c4cccc(NC(C)=O)c4)cccc23)NC(=O)[C@H]([C@@H](C)O)NC(=O)[C@H](CC(N)=O)NC(=O)[C@@H](NC(=O)[C@@H](CCCC[N+](C)(C)C)NC(C)=O)C(C)(C)SSC(C)(C)[C@@H](C(=O)N[C@@H](Cc2ccc(OCCN)cc2)C(=O)N[C@@H](Cc2ccc3cc(O)ccc3c2)C(=O)NC2(C(=O)N[C@@H](CCC(=O)O)C(=O)N[C@@H](CC(N)=O)C(=O)N[C@@H](Cc3cccnc3)C(=O)N(C)CC(N)=O)CCOCC2)NC1=O` [compound 68, MeCO-k(Me)3-Pen(3)-N-T-7(3NAcPh)W-K(Ac)-Pen(3)-AEF-6OH2Nal-THP-E-N-3Pya-Sar-CONH2] (Ac-[dLys(Me3)][Pen]NT[Trp(7-(3-AcNH-Ph))]K(Ac)[Pen][AEF][2Nal(6-OH)][Thp]EN[3Pal][Sar]-NH2; disulfide 2-7), for which the half-maximal inhibitory concentration (IC50) was 0.01 to 0.1 nM in assay [1] and under 10 nM on IL-23R.

Consider `CC(=O)NCCCC[C@@H]1NC(=O)[C@H](Cc2c[nH]c3c(-c4cccc(NC(C)=O)c4)cccc23)NC(=O)[C@H]([C@@H](C)O)NC(=O)[C@H](CC(N)=O)NC(=O)[C@@H](NC(=O)[C@@H](CCCC[N+](C)(C)C)NC(C)=O)C(C)(C)SSC(C)(C)[C@@H](C(=O)N[C@@H](Cc2ccc(OCCNC(=N)N)cc2)C(=O)N[C@@H](Cc2ccc3cc(O)ccc3c2)C(=O)NC2(C(=O)N[C@@H](CCC(=O)O)C(=O)N[C@@H](CC(N)=O)C(=O)N[C@@H](Cc3cncc(C)c3)C(=O)N(C)CC(N)=O)CCOCC2)NC1=O` [compound 11, MeCO-k(Me)3-Pen(3)-N-T-7(3NAcPh)W-K(Ac)-Pen(3)-AEF(G)-6OH2Nal-THP-E-N-5MePyridinAla-Sar-CONH2] (Ac-[dLys(Me3)][Pen]NT[Trp(7-(3-AcNH-Ph))]K(Ac)[Pen]Y(Ethyl(2-guanidino))[2Nal(6-OH)][Thp]EN[3Pal(5-Me)][Sar]-NH2; disulfide 2-7), for which the IC50 was under 0.01 nM in assay [1] and under 10 nM on IL-23R.

As to `CC(=O)N[C@@H]1C(=O)N[C@@H](CC(=O)N(C)C)C(=O)N[C@@H]([C@@H](C)O)C(=O)N[C@@H](Cc2c[nH]c3c(C)cccc23)C(=O)N[C@@H](CCCCN(C)C(C)=O)C(=O)N[C@H](C(=O)N[C@@H](Cc2ccc(OCCN(C)C(=O)CCOCCOCC[N+](C)(C)C)cc2)C(=O)N[C@@H](Cc2ccc3cc(O)ccc3c2)C(=O)NC2(C(=O)N[C@@H](CCCCN(C)C(C)=O)C(=O)N[C@@H](CC(N)=O)C(=O)N[C@@H](Cc3cccnc3)C(=O)N(C)CC(=O)NCCOCCOCC[N+](C)(C)C)CCOCC2)C(C)(C)SSC1(C)C` [compound 315, MeCO-Pen(3)-N(NMe2)-T-7MeW-K(NMeAc)-Pen(3)-AEF(NMePEG3a)-6OH2Nal-THP-K(NMeAc)-N-3Pya-Sar-CONH(PEG3a)] (Ac-[Pen]D(NMe2)T[Trp(7-Me)][Lys(Me)](Ac)[Pen]Y(X9)[2Nal(6-OH)][Thp][Lys(Me)](Ac)N[3Pal][Sar]-{NH(CH2CH2O)2CH2CH2NMe3+}; disulfide 1-6), the IC50 in assay [1] is 0.01 to 0.1 nM; at IL-23R, under 10 nM.

Consider `CC(=O)NCCCC[C@@H]1NC(=O)[C@H](Cc2c[nH]c3c(C)cccc23)NC(=O)[C@H]([C@@H](C)O)NC(=O)[C@@H]2CCCCNCCOc3ccc(cc3)C[C@@H](C(=O)N[C@@H](Cc3ccc4cc(O)ccc4c3)C(=O)NC3(C(=O)N[C@@H](CCCCNC(C)=O)C(=O)N[C@@H](CC(N)=O)C(=O)N[C@@H](Cc4cccnc4)C(=O)N(C)CC(N)=O)CCOCC3)NC(=O)[C@@H](NC1=O)C(C)(C)SSC(C)(C)[C@H](NC(=O)CCCCC[N+](C)(C)C)C(=O)N2` [compound 112, 5cpaCO-Pen(3)-K(5)-T-7MeW-K(Ac)-Pen(3)-AEF(5)-6OH2Nal-THP-K(Ac)-N-3Pya-Sar-CONH2], for which the IC50 was under 0.01 nM in assay [1] and under 10 nM at IL-23R.

Usually IC50 stands for the concentration that inhibits the measured activity by half.

The values are drawn from patent US20240279281A1, “Peptide Inhibitors of Interleukin-23 Receptor” (Janssen Pharmaceutica NV, priority 2023, published 2024).
